From patent US20240226332A9, “GENE THERAPY FOR TREM2-ASSOCIATED DISEASES AND DISORDERS” (Eli Lilly and Company, priority 2022, published 2024)

Tests used:
iPSC-derived microglia = test: Pharmacological CSF1R-inhibition (PLX3397) cell viability assay in human iPSC-derived microglia; assay type: cell-based; conditions: 150 nM or 200 nM PLX3397 in 0.1% DMSO, 8 hr, colorimetric viability kit
Method: Methods: The iPSC-derived microglia as described in Example 4 either were treated with excipient (negative control) or were transduced with a rAAV vector having a TREM2 transgene (SEQ ID NO:26) encapsidated in AAV6TM capsid protein (SEQ ID NO:19) at a MOI of 2.0×10^3 vg/cell. 7 days post-transduction, 150 nM or 200 nM of PLX3397 in 0.1% DMSO was added to the cell culture media and incubated for additional 8 hr at 37° C. and 5% CO2. After this period of incubation, cells were assayed for viability using a colorimetric kit (Abcam).

[1] = system: CSF1R-inhibition mouse model (WT C57BL/6 mice fed PLX-chow); test: In vivo efficacy of TREM2 rAAV in CSF1R-inhibition (PLX) mouse model for CRL
Method: The rAAV was injected at a dose of either 1.8×10^10 vg (4.49×10^10 vg/g brain) or 1.8×10^11 vg (4.49×10^11 vg/g brain), respectively. Vector particles per g brain weight was based on an adult mouse brain weight of 400 mg. At 8 weeks of age (i.e., 4 weeks post-ICV injection), 1 excipient-treated group and both dose-treated groups were fed with PLX-containing mouse chow. Mice were fed with PLX-chow at 185 mg/kg for 1 week and then sacrificed at 9 weeks of age (i.e., 5 weeks post-ICV injection).
Biodistribution was determined by measuring vg presence using ddPCR (with >50 vg/1 μg gDNA defined as positive).

In the case of `FC(F)(F)c1ccc(CNc2ccc(Cc3c[nH]c4ncc(Cl)cc34)cn2)cn1` [PLX], the “cell death (cytotoxicity of PLX treatment)” value (iPSC-derived microglia) is reported as “about 80%”, the “number of IBA1+ microglia in brain” value ([1]; PLX-chow 185 mg/kg for 1 week, either dose of rAAV+PLX compared to excipient+PLX) is reported as “almost complete depletion of microglia throughout the brain” and the “expression of homeostatic microglia genes (P2RY12, HEXB)” value ([1]; PLX-chow 185 mg/kg for 1 week, rAAV+PLX) is reported as “decreased expression of genes associated with homeostatic microglia”. The “CSF1R expression (mRNA; protein)” value ([1]; PLX-chow 185 mg/kg for 1 week, rAAV+PLX (both doses) compared to excipient+PLX) was “apparent at both the mRNA and protein level” and the “expression of disease associated microglia (DAM) genes (CCL12, CD48, CD68, LYZ1, PTPRC)” value ([1]; excipient+PLX, rAAV+PLX compared to excipient-only) was “significant decrease in expression”.
